Reference: US8772343B2, “Chemical compounds” (Pfizer Limited, priority 2010, dated 2014)
Counter-ions that a name gives are not always drawn.

These molecules were tested against T1, Nav1.7 (or SCN9A) channel (Homo sapiens, UniProt Q15858) (assay: Nav1.7 PatchXpress automated whole-cell electrophysiology in HEK cells expressing hSCN9A). Conditions: estimated IC50 from single point data, PatchXpress assay, held at V1/2 of inactivation, read-out: Nav1.7 EIC50.
T1 construct: expressed in transfected cells
Format: cell-based
Protocol: The ability of the compounds of formula (I) to block the Nav1.7 (or SCN9A) channel were measured using the assay described below.
Human Embryonic Kidney (HEK) cells were transfected with an hSCN9A construct using lipofectamine reagent (Invitrogen), using standard techniques. Cells stably expressing the hSCN9A constructs were identified by their resistance to G-418 (400 μg/ml). Clones were screened for expression using the whole-cell voltage-clamp technique.
HEK cells stably transfected with hSCN9A were maintained in DMEM medium supplemented with 10% heat-inactivated fetal bovine serum and 400 μg/ml G-418 in an incubator at 37° C. with a humidified atmosphere of 10% CO2. For HTS, cells were harvested from flasks by trypsinization and replated in an appropriate multi-well plate (typically 96 or 384 wells/plate) such that confluence would be achieved within 24 hours of plating. For electrophysiological studies, cells were removed from the culture flask by brief trypsinization and re-plated at low density onto glass cover slips. Cells were typically used for electrophysiological experiments within 24 to 72 hours after plating.
Cover slips containing HEK cells expressing hSCN9A were placed in a bath on the stage of an inverted microscope and perfused (approximately 1 ml/minutes) with extracellular solution of the following composition: 138 mM NaCl, 2 mM CaCl2, 5.4 mM KCl, 1 mM MgCl2, 10 mM glucose, and 10 mM HEPES, pH 7.4, with NaOH. […] The osmolarity of the extracellular and intracellular solutions was 300 mOsm/kg and 295 mOsm/kg, respectively. All recordings were made at room temperature (22-24° C.) using AXOPATCH 200B amplifiers and PCLAMP software (Axon Instruments, Burlingame, Calif.).
hSCN9A currents in HEK cells were measured using the whole-cell configuration of the patch-clamp technique (Hamill et al., 1981). Uncompensated series resistance was typically 2 to 5 mega ohms and >85% series resistance compensation was routinely achieved. As a result, voltage errors were negligible and no correction was applied. Current records were acquired at 20 to 50 KHz and filtered at 5 to 10 KHz.
HEK cells stably transfected with hSCN9A were viewed under Hoffman contrast optics and placed in front of an array of flow pipes emitting either control or compound-containing extracellular solutions. All compounds were dissolved in dimethyl sulfoxide to make 10 mM stock solutions, which were then diluted into extracellular solution to attain the final concentrations desired. […] The voltage-dependence of inactivation was determined by applying a series of depolarizing prepulses (8 sec long in 10 mV increments) from a negative holding potential. The voltage was then immediately stepped to 0 mV to assess the magnitude of the sodium current. Currents elicited at 0 mV were plotted as a function of prepulse potential to allow estimation of the voltage at which 50% of the channels were inactivated (midpoint of inactivation or V1/2). Compounds were tested for their ability to inhibit hSCN9A sodium channels by activating the channel with a 20 msec voltage step to 0 mV following an 8 second conditioning prepulse to the empirically determined V1/2. Compound effect (% inhibition) was determined by difference in current amplitude before and after application of test compounds. For ease of comparison, “estimated IC-50” (EIC50) values were calculated from single point electrophysiology data by the following equation, (tested concentration, uM)×(100-% inhibition/% inhibition). Inhibition values<20% and >80% were excluded from the calculation.
Electrophysiological assays were conducted with PatchXpress 7000 hardware and associated software (Molecular Devices Corp). All assay buffers and solutions were identical to those used in conventional whole-cell voltage clamp experiments described above. hSCN9A cells were grown as above to 50%-80% confluency and harvested by trypsinization. […]

T1 sequence (Q15858 whole entry): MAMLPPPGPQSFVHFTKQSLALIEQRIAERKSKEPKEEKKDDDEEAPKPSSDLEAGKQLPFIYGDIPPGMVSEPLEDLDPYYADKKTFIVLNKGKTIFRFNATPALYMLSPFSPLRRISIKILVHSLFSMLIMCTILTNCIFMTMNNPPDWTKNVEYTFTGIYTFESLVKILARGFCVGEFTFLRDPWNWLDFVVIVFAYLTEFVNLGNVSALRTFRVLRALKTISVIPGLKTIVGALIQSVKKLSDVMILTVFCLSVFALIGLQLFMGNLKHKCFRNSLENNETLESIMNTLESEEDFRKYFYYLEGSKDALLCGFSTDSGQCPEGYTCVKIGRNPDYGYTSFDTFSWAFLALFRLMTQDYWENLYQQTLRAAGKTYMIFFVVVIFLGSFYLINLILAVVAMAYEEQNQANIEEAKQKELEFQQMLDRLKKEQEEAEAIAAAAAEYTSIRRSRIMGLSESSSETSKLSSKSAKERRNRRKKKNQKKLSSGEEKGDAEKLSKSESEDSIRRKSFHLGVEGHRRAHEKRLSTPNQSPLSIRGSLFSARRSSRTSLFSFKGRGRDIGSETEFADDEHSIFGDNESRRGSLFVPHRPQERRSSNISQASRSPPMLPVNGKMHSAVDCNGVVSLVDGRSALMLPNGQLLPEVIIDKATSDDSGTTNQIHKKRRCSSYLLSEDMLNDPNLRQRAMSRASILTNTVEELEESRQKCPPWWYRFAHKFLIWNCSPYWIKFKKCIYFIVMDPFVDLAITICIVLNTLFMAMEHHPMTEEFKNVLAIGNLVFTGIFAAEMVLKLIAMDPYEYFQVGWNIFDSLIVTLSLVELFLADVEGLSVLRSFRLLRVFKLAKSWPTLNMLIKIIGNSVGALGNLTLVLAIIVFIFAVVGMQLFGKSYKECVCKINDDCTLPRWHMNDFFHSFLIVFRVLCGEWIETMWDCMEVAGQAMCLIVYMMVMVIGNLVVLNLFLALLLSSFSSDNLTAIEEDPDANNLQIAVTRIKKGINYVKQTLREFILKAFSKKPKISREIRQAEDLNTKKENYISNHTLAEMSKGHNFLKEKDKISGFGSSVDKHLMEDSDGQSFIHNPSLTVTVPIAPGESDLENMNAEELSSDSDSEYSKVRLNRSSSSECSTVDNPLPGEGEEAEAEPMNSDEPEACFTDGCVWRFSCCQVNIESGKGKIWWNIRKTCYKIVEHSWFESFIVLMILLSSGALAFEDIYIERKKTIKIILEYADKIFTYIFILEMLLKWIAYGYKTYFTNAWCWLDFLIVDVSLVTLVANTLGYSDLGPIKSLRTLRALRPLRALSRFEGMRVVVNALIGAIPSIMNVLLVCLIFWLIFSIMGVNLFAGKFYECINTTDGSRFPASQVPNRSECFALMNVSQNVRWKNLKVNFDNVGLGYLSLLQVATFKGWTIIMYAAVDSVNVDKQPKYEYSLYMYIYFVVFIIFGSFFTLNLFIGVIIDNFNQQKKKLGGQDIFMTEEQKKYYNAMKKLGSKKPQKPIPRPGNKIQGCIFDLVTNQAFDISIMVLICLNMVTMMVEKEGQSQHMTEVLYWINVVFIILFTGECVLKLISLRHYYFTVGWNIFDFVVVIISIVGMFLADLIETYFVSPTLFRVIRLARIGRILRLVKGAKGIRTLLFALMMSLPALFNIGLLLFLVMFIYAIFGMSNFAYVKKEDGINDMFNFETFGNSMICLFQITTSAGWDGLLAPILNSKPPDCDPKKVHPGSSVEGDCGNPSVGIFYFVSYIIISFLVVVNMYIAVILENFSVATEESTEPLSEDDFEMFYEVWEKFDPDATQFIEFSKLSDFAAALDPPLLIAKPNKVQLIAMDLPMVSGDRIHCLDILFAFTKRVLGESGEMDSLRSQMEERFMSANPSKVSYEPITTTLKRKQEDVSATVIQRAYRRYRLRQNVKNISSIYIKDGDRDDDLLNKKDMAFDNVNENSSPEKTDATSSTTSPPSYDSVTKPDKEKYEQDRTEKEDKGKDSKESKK

Compound | IC50 [nM]
CCc1ccccc1Oc1ccc(C(=O)NS(C)(=O)=O)cc1-c1cccnc1OC [Example 80, 4-(2-ethylphenoxy)-3-(2-methoxypyridin-3-yl)-N-(methylsulfonyl)benzamide] | > 1000
CCOc1ccc(Oc2ccc(C(=O)NS(C)(=O)=O)cc2-c2cccnc2OC)cc1 [Example 83, 4-(4-ethoxyphenoxy)-3-(2-methoxypyridin-3-yl)-N-(methylsulfonyl)benzamide] | 490
COc1ncccc1-c1cc(C(=O)NS(C)(=O)=O)ccc1Oc1ccc(C(F)(F)F)cc1 [Example 87, 3-(2-methoxypyridin-3-yl)-N-(methylsulfonyl)-4-[4-(trifluoromethyl)phenoxy]benzamide] | 86
COc1ncccc1-c1cc(C(=O)NS(C)(=O)=O)ccc1Oc1ccc(C#N)c(Cl)c1 [Example 88, 4-(3-chloro-4-cyanophenoxy)-3-(2-methoxypyridin-3-yl)-N-(methylsulfonyl)benzamide] | 2500
CCc1cccc(Oc2ccc(C(=O)NS(C)(=O)=O)cc2-c2cccnc2OC)c1 [Example 89, 4-(3-ethylphenoxy)-3-(2-methoxypyridin-3-yl)-N-(methylsulfonyl)benzamide] | 160
COc1ncccc1-c1cc(C(=O)NS(C)(=O)=O)ccc1Oc1cncc(Cl)c1 [Example 90, 4-[(5-chloropyridin-3-yl)oxy]-3-(2-methoxypyridin-3-yl)-N-(methylsulfonyl)benzamide] | 1400
COc1ncccc1-c1cc(C(=O)NS(C)(=O)=O)ccc1Oc1ccc(F)cc1 [Example 91, 4-(4-fluorophenoxy)-3-(2-methoxypyridin-3-yl)-N-(methylsulfonyl)benzamide] | 680
COc1ncccc1-c1cc(C(=O)NS(C)(=O)=O)ccc1Oc1ccc(C(C)C)cc1 [Example 92, 4-(4-isopropylphenoxy)-3-(2-methoxypyridin-3-yl)-N-(methylsulfonyl)benzamide] | 38
COc1ncccc1-c1cc(C(=O)NS(C)(=O)=O)ccc1Oc1ccc(OC(F)(F)F)cc1 [Example 93, 3-(2-methoxypyridin-3-yl)-N-(methylsulfonyl)-4-[4-(trifluoromethoxy)phenoxy]benzamide] | 66
COc1ncccc1-c1cc(C(=O)NS(C)(=O)=O)ccc1Oc1cnc(C2CC2)c(Cl)c1 [Example 94, 4-(5-chloro-6-cyclopropylpyridin-3-yloxy)-3-(2-methoxypyridin-3-yl)-N-(methylsulfonyl)benzamide] | 400

More lines, now with the values ahead:

IC50 [nM] | Compound
< 1000 | CCc1ccc(Oc2ccc(C(=O)NS(C)(=O)=O)cc2-c2cccnc2OC)cc1 [Example 77, 4-(4-ethylphenoxy)-3-(2-methoxypyridin-3-yl)-N-(methylsulfonyl)benzamide]
150 | COc1ncccc1-c1cc(C(=O)NS(C)(=O)=O)ccc1Oc1ccc(F)c(C(F)(F)F)c1 [Example 78, 4-[4-fluoro-3-(trifluoromethyl)phenoxy]-3-(2-methoxypyridin-3-yl)-N-(methylsulfonyl)benzamide]
2400 | COc1ccc(Oc2ccc(C(=O)NS(C)(=O)=O)cc2-c2cccnc2OC)c(F)c1 [Example 79, 4-(2-fluoro-4-methoxyphenoxy)-3-(2-methoxypyridin-3-yl)-N-(methylsulfonyl)benzamide]
1100 | COc1ncccc1-c1cc(C(=O)NS(C)(=O)=O)ccc1Oc1cccc(C(F)(F)F)c1F [Example 81, 4-[2-fluoro-3-(trifluoromethyl)phenoxy]-3-(2-methoxypyridin-3-yl)-N-(methylsulfonyl)benzamide]
> 1000 | COc1ncccc1-c1cc(C(=O)NS(C)(=O)=O)ccc1Oc1ccccc1C(F)(F)F [Example 82, 3-(2-methoxypyridin-3-yl)-N-(methylsulfonyl)-4-[2-(trifluoromethyl)phenoxy]benzamide]
490 | CCOc1cccc(Oc2ccc(C(=O)NS(C)(=O)=O)cc2-c2cccnc2OC)c1 [Example 84, 4-(3-ethoxyphenoxy)-3-(2-methoxypyridin-3-yl)-N-(methylsulfonyl)benzamide]
640 | COc1cccc(Oc2ccc(C(=O)NS(C)(=O)=O)cc2-c2cccnc2OC)c1 [Example 85, 4-(3-methoxyphenoxy)-3-(2-methoxypyridin-3-yl)-N-(methylsulfonyl)benzamide]
1100 | COc1ncccc1-c1cc(C(=O)NS(C)(=O)=O)ccc1Oc1ccc(F)cc1F [Example 86, 4-(2,4-difluorophenoxy)-3-(2-methoxypyridin-3-yl)-N-(methylsulfonyl)benzamide]
100 | CCc1cc(Oc2ccc(C(=O)NS(C)(=O)=O)cc2-c2ccn[nH]2)ccc1Cl [Example 95, 4-(4-chloro-3-ethylphenoxy)-N-(methylsulfonyl)-3-(1H-pyrazol-5-yl)benzamide hydrochloride salt]

These molecules were tested against T1, Nav1.7 (or SCN9A) channel (assay: Nav1.7 Ionworks Quattro automated electrophysiology in HEK cells expressing hSCN9A). Conditions: estimated IC50, values marked (IW), Ionworks Quattro assay, read-out: Nav1.7 EIC50 (IW).
Format: cell-based
Protocol: The ability of the compounds of formula (I) to block the Nav1.7 (or SCN9A) channel were measured using the assay described below. Human Embryonic Kidney (HEK) cells were transfected with an hSCN9A construct using lipofectamine reagent (Invitrogen), using standard techniques. Cells stably expressing the hSCN9A constructs were identified by their resistance to G-418 (400 μg/ml). Clones were screened for expression using the whole-cell voltage-clamp technique. HEK cells stably transfected with hSCN9A were maintained in DMEM medium supplemented with 10% heat-inactivated fetal bovine serum and 400 μg/ml G-418 in an incubator at 37° C. with a humidified atmosphere of 10% CO2. For HTS, cells were harvested from flasks by trypsinization and replated in an appropriate multi-well plate (typically 96 or 384 wells/plate) such that confluence would be achieved within 24 hours of plating. For electrophysiological studies, cells were removed from the culture flask by brief trypsinization and re-plated at low density onto glass cover slips. Cells were typically used for electrophysiological experiments within 24 to 72 hours after plating. Electrophysiological assays were also conducted using the Ionworks Quattro automated electrophysiological platform (Molecular Devices Corp). Intracellular and extracellular solutions were as described above with the following changes, 120 μg/ml amphotericin was added to the intracellular solution to perforate the membrane and allow electrical access to the cells. hSCN9A cells were grown and harvested as for PatchXpress and cells were resuspended in extracellular solution at a concentration of 1×10^6 cells/ml. The onboard liquid handling facility of the Ionworks Quattro was used for dispensing cells and application of test compounds. A voltage protocol was then applied that comprised of a voltage step to fully inactivate the sodium channels, followed by a brief hyperpolarized recovery period to allow partial recovery from inactivation for unblocked sodium channels, followed by a test depolarized voltage step to assess magnitude of inhibition by test compound. Compound effect was determined based on current amplitude difference between the pre-compound addition and post-compound addition scans. Compounds of the Examples were tested in the assays described above and found to have the Nav1.7 EIC50 (uM) values specified in the table below. All data are derived from the PatchXpress assay unless expressly stated otherwise.

IC50 [nM] | Compound
24000 | CS(=O)(=O)NC(=O)c1ccc(Oc2ccc(Cl)cc2)c(-c2cccc(C(F)(F)F)c2)c1 [Example 13, 6-(4-chlorophenoxy)-N-(methylsulfonyl)-3′-(trifluoromethyl)biphenyl-3-carboxamide]
13000 | CS(=O)(=O)NC(=O)c1ccc(Oc2ccc(Cl)cc2)c(-c2cccc(F)c2)c1 [Example 17, 6-(4-chlorophenoxy)-3′-fluoro-N-(methylsulfonyl)-biphenyl-3-carboxamide]
28000 | CS(=O)(=O)NC(=O)c1ccc(Oc2ccc(Cl)cc2)c(-c2cccnc2)c1 [Example 19, 4-(4-chlorophenoxy)-N-(methylsulfonyl)-3-pyridin-3-ylbenzamide]
15000 | CS(=O)(=O)NC(=O)c1ccc(Oc2ccc(Cl)cc2)c(-c2cccc(Cl)c2)c1 [Example 22, 3′-chloro-6-(4-chlorophenoxy)-N-(methylsulfonyl)-biphenyl-3-carboxamide]
10000 | CS(=O)(=O)NC(=O)c1ccc(Oc2ccc(Cl)cc2)c(-c2ccc(C#N)cc2)c1 [Example 25, 6-(4-chlorophenoxy)-4′-cyano-N-(methylsulfonyl)-biphenyl-3-carboxamide]
17000 | CS(=O)(=O)NC(=O)c1ccc(Oc2ccc(Cl)cc2)c(-c2cccc(C#N)c2)c1 [Example 26, 6-(4-chlorophenoxy)-3′-cyano-N-(methylsulfonyl)-biphenyl-3-carboxamide]
